Results reported in patent publication US6048854A, “2,3-diaminopropionic acid derivative” (Sumitomo Pharmaceuticals Company, Limited, priority 1993, dated 2000).
pIC50: −log10 of the molar value. Like-named read-outs stand apart in the source and are kept apart here.

Assays:
human fibronectin = experiment: Binding assay of platelet to adhesive protein: fibronectin (receptor binding inhibition); conditions: Table 4; fixed activated human platelets, 37° C., 60 minutes
Method: (§1) The blood was taken out from the elbow vein of a normal volunteer, and mixed with 1/10 volume of 3.8% sodium citrate. The blood was centrifuged at 1,000 rpm (150 g) for 10 minutes, and the supernatant is collected as a platelet rich plasma (PRP). The precipitates are centrifuged at 11,000 rpm (6000 g) for two minutes, and the supernatant is collected as a platelet poor plasma (PPP). To PRP is added prostaglandin I2 (PGl2) at a final concentration of 50 ng/ml, and the mixture was centrifuged at 11000 rpm for two minutes to give human platelet. The platelet was activated by washing with 3.8 mM HEPES-buffer (pH 7.4, Tyrode-HEPES buffer) containing 0.14 M sodium chloride, 2.7 mM potassium chloride, 3.7 mM sodium dihydrogen phosphate, 0.98 mM magnesium chloride, 1 mg/ml glucose, 50 ng/ml PGl2 and 0.35% bovine serum albumin (BSA), adding thereto 5 μM epinephrine, and 30 μM ADP (adenosine diphosphate), followed by being allowed to stand at room temperature for five minutes. To the activated platelet was added 0.05% p-formaldehyde, and the mixture was allowed to stand at room temperature for 30 minutes to give the fixed platelet, which was suspended in Tyrode-HEPES buffer to give a platelet suspension of a concentration of 2×10^8 ml^-1.
(§2) Human fibrinogen from which fibronectin was previously removed by passing through gelatin-cepharose, human fibronectin or human vitronectin was diluted with 0.1 M aqueous sodium hydrogen carbonate solution to a concentration of 5 μg/ml, and the protein solution is put into a 96-well microplate at a volume of 200 μl/well. The microplate was allowed to stand at 4° C. overnight. The plate was washed with phosphate buffered saline (PBS), and subjected to blocking with 3% BSA at 37° C. for one hour. To the plate were added a platelet suspension (final concentration, 10^8 ml^-1) and a test compound of various concentrations (total volume, 200 μl/well), and the plate was incubated at 37° C. for 60 minutes. The plate was treated with 1000-fold diluted enzyme (HRP)-labelled anti-mouse IgG polyclonal antibody at 37° C. for 60 minutes, and thereto was added HRP chromogenic substrate (0.1 M phosphate buffer containing 0.4 mg/ml O-phenylenediamine,0.01% hydrogen peroxide, 0.1 M citric acid, pH 5), and reacted at room temperature for 15 minutes. The reaction was terminated by adding thereto 4.5 M sulfuric acid at a volume of 25 μl/well, and the absorbance at 490 nm was measured.

human fibrinogen = biological target: T1, human fibrinogen (Homo sapiens, UniProt P05106+P08514); experiment: Binding assay of platelet to adhesive protein: fibrinogen (receptor binding inhibition); conditions: Table 4; fixed activated human platelets, 37° C., 60 minutes
T1 construct: centrifuged at 11000 rpm for two minutes to give human platelet; from tissue
T1 sequence (P08514 32-887 limits assumed): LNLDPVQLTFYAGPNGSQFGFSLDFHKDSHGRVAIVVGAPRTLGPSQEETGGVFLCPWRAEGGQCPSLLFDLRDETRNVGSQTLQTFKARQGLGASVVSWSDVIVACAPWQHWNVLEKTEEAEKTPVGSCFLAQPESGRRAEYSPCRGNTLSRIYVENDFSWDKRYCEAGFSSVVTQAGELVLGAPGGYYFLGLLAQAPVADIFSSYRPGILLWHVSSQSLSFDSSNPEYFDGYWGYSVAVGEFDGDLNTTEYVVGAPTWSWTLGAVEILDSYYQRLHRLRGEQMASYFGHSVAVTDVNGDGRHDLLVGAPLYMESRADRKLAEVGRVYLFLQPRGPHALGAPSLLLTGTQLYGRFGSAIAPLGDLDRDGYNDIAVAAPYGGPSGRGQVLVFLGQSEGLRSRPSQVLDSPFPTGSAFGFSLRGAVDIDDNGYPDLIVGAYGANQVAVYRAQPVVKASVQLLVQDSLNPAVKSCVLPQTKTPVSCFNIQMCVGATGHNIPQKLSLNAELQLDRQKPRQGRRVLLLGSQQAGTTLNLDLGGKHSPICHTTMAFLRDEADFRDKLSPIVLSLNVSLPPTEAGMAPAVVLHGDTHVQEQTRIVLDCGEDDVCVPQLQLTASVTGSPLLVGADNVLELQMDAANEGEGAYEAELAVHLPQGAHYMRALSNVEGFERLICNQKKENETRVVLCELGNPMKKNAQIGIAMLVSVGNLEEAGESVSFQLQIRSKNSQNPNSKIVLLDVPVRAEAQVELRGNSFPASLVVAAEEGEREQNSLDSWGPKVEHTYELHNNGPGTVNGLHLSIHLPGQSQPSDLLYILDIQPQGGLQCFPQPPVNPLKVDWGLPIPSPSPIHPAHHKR
T1 sequence (P08514 891-1039 limits assumed): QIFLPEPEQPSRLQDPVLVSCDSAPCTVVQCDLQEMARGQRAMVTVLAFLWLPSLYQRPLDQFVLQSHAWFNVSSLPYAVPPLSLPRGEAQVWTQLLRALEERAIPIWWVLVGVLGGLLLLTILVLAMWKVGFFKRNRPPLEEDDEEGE
T1 sequence (P05106 27-788): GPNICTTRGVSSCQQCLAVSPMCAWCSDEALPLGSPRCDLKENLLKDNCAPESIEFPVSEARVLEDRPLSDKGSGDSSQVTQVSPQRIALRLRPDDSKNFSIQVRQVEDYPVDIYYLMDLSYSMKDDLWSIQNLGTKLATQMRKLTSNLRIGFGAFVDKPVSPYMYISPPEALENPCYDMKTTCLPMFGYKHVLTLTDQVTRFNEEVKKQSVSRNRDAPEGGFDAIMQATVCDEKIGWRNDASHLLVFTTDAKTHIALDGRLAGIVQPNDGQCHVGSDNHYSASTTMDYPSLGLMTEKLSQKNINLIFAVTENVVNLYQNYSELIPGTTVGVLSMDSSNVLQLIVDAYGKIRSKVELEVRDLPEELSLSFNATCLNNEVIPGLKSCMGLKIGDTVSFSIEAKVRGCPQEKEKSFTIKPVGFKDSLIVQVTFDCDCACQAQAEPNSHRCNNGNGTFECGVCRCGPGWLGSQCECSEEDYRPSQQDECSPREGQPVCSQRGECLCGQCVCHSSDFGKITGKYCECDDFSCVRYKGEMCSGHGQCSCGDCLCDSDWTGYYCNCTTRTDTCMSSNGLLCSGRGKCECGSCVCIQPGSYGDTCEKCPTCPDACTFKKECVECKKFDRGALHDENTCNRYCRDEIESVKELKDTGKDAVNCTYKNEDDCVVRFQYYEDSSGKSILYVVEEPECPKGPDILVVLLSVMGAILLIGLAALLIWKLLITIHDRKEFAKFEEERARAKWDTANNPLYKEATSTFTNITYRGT
Method: as §1, §2

platelet aggregation [1] = experiment: Platelet aggregation inhibitory activity (ADP-induced, human platelet rich plasma); format: cell-based
In short: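 Citrated human platelet-rich plasma […] was stirred with test compound for 2 min at 37 °C. Aggregation was then induced with ADP at 3 μg/ml final and monitored by nephelometry. IC50 is the concentration giving 50% inhibition of aggregation.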

human vitronectin = experiment: Binding assay of platelet to adhesive protein: vitronectin (receptor binding inhibition); conditions: Table 4; fixed activated human platelets, 37° C., 60 minutes; read-out: receptor binding inhibition (IC50), Bitronectin
Method: as §1, §2

platelet aggregation [2] = experiment: Platelet aggregation inhibitory activity (ex vivo) after oral administration; format: in vivo; conditions: Cavia porcellus, guinea pig, oral 0.1 mg/kg, ADP 10 μg/ml
Method: A canula for collecting blood was inserted into the left common carotid artery of a guinea pig which was anesthetized with pentobarbital (30 mg/kg, i.p.). The blood (1 ml) was taken with a syringe containing 1/10 volume of 3.8% sodium citrate (Kettin-citrate, manufactured by Kokusai Shiyaku Ltd.), and the platelet aggregation ability thereof was measured (as a value before administration). Then, a test compound was orally administered to the guinea pig at a dose of 0.1 mg/kg in a volume of 5 ml/kg, and the blood was collected periodically likewise at 0.5, 1, 2, 4 and 6 hours after the administration of the test compound, and the platelet aggregation ability thereof was measured.
The determination of the platelet aggregation ability was carried out by turbidimetry using a Hematracer (Niko Bioscience) as follows. That is, the blood was centrifuged at 4500 rpm at room temperature for 10 seconds, and the supernatant was considered as platelet rich plasma (PRP), and the precipitate was centrifuged at 11000 rpm for two minutes and its supernatant was considered as platelet poor plasma (PPP), and the photo-transmittance of the PRP and the PPP was adjusted to 0%, and 100%, respectively. A cubet containing PRP (200 μl) was inserted to a measurement well, and […] at 1000 rpm at 37° C. for two minutes, and thereto was added a platelet aggregator; ADP (adenosine diphosphate, Sigma Ltd., 20 μl, final concentration; 10 μg/ml), and the maximum aggregation rate was measured. From the maximum aggregation rate before the administration of the test compound (MAR control) and the maximum aggregation rate after the administration of the test compound (MAR sample), the platelet aggregation inhibitory rate of each test compound was estimated according to the following equation.
Inhibitory rate (%)=(1-(MAR sample/MAR control))×100
The periodical change in the platelet aggregation inhibitory rate of each test compound at a dose of 0.1 mg/kg of oral administration is shown in Table 5.

[3] = Homo sapiens, Table 3, same manner as Example 17
[4] = 0.5 hr, read-out: platelet aggregation inhibitory rate (%), 0.5 hr
[5] = 1 hr, read-out: platelet aggregation inhibitory rate (%), 1 hr
[6] = 2 hrs, read-out: platelet aggregation inhibitory rate (%), 2 hrs
[7] = 4 hrs, read-out: platelet aggregation inhibitory rate (%), 4 hrs
[8] = 6 hrs, read-out: platelet aggregation inhibitory rate (%), 6 hrs
[9] = Table 1, human PRP, ADP 3 μg/ml, 37° C.
[10] = Homo sapiens, Table 2, same manner as Example 17

SMILES	pIC50 (human fibronectin)	pIC50 (human fibrinogen)	pIC50 (platelet aggregation [1]; [3])	pIC50 (human vitronectin)	pIC50 (platelet aggregation [1]; [9])	pIC50 (platelet aggregation [1]; [10])	inhibition in vivo at 0.1 mg/kg (platelet aggregation [2]; [4]) [%]	inhibition in vivo at 0.1 mg/kg (platelet aggregation [2]; [5]) [%]	inhibition in vivo at 0.1 mg/kg (platelet aggregation [2]; [6]) [%]	inhibition in vivo at 0.1 mg/kg (platelet aggregation [2]; [7]) [%]	inhibition in vivo at 0.1 mg/kg (platelet aggregation [2]; [8]) [%]
COc1ccc(S(=O)(=O)N[C@@H](CNC(=O)CC2CCN(c3ccc(C(=N)N)cc3)CC2)C(=O)O)cc1 [Example 93, (2S)-3-(2-(1-(4-amidinophenyl)-4-piperidyl)ethanoylamino)-2-(4-methoxy)benzenesulfonylaminopropanoic Acid]	7.02	7.82	7.03	5.46			4	27	69	44	12
N=C(N)c1ccc(OCCCC(=O)NC[C@H](NS(=O)(=O)c2ccccc2C(F)(F)F)C(=O)O)cc1 [Example 82, (2S)-3-(4-(4-amidinophenoxy)butanoylamino)-2-(2-trifluoromethyl)benzenesulfonylaminopropanoic Acid]	7.72	8.92	7.51	6.57			81	66	54	52	51
N=C(N)c1ccc(C(=O)NCCC(=O)NC[C@H](NS(=O)(=O)c2ccc(F)cc2)C(=O)O)cc1 [Example 78, (2S)-3-(3-(4-amidinobenzoylamino)propanoylamino)-2-(4-fluoro)benzenesulfonylaminopropanoic Acid]	7.60	8.05	7.80	6.80			99	100	100	100	100
N=C(N)c1ccc(C(=O)N2CCCC(C(=O)NC[C@H](NS(=O)(=O)c3ccccc3)C(=O)O)C2)cc1 (stereo partly drawn) [Example 95, (2S)-3-((1-(4-amidinobenzoyl)-3-piperidyl)carbonylamino)-2-benzenesulfonylaminopropanoic Acid]	7.48	8.08		6.20			49	49	31	12	18
Cc1cc(C)c(S(=O)(=O)N[C@@H](CNC(=O)CCCOc2ccc(C(=N)N)cc2)C(=O)O)c(C)c1 [Example 60, (2S)-3-(4-(4-amidinophenoxy)butanoylamino)-2-(2,4,6-trimethyl)benzenesulfonylaminopropanic Acid]	7.03	8.82		5.96		7.51					

Further lines, with some results ahead:

pIC50 (human fibronectin)	pIC50 (human fibrinogen)	pIC50 (platelet aggregation [1]; [3])	pIC50 (human vitronectin)	pIC50 (platelet aggregation [1]; [9])	pIC50 (platelet aggregation [1]; [10])	SMILES	inhibition in vivo at 0.1 mg/kg (platelet aggregation [2]; [4]) [%]	inhibition in vivo at 0.1 mg/kg (platelet aggregation [2]; [5]) [%]	inhibition in vivo at 0.1 mg/kg (platelet aggregation [2]; [6]) [%]	inhibition in vivo at 0.1 mg/kg (platelet aggregation [2]; [7]) [%]	inhibition in vivo at 0.1 mg/kg (platelet aggregation [2]; [8]) [%]
6.92	7.92		4.12	7.40		O=C(CCC1CCNCC1)NCCC(=O)NC[C@H](NS(=O)(=O)c1ccccc1)C(=O)O [Example 2, (2S)-2-benzenesulfonylamino-3-(3-(3-(4-piperidyl)propanoylamino)propanoylamino)propanoic Acid]	87	78	67	32	13
5.92	8.15		5.12		7.74	COc1ccc(S(=O)(=O)N[C@@H](CNC(=O)CCCOc2ccc(C(=N)N)cc2)C(=O)O)cc1 [Example 57, (2S)-3-(4-(4-amidinophenoxy)butanoylamino)-2-(4-methoxy)benzenesulfonylaminopropanoic Acid]					
6.70	8.34		6.00	7.80		N=C(N)c1ccc(C(=O)NCCC(=O)NC[C@H](NS(=O)(=O)c2ccccc2)C(=O)O)cc1 [Example 1, (2S)-3-(3-(4-amidinobenzoylamino)propanoylamino)-2-benzenesulfonylaminopropanoic Acid]	100	100	100	100	100
7.70	8.32	7.59	6.57			N=C(N)c1ccc(OCCCCC(=O)NC[C@H](NS(=O)(=O)c2ccccc2[N+](=O)[O-])C(=O)O)cc1 [Example 85, (2S)-3-(5-(4-amidinophenoxy)pentanoylamino)-2-(2-nitro)benzenesulfonylaminopropanoic Acid]	36	41	44	31	17
7.00	7.92		5.57		7.37	COc1ccc(S(=O)(=O)N[C@@H](CNC(=O)Cc2ccc(-c3ccc(C(=N)N)cc3)cc2)C(=O)O)cc1 [Example 68, (2S)-3-(2-(4'-amidino-4-biphenylyl)ethanoylamino)-2-(4-methoxy)benzenesulfonylaminopropanoic Acid]					
6.11	7.66	7.52	5.11			CCc1ccc(S(=O)(=O)N[C@@H](CNC(=O)CCCOc2ccc(C(=N)N)cc2)C(=O)O)cc1 [Example 83, (2S)-3-(4-(4-amidinophenoxy)butanoylamino)-2-(4-ethyl)benzenesulfonylaminopropanoic Acid]	50	47	48	32	41
6.21	7.62		5.10		7.02	N=C(N)c1ccc(OCCCC(=O)NC[C@H](NS(=O)(=O)c2ccccc2)C(=O)O)cc1 [Example 58, (2S)-3-(4-(4-amidinophenoxy)butanoylamino)-2-benzenesulfonylaminopropanoicAcid]					
6.21	7.92		5.48		7.47	N=C(N)c1ccc(OCCCC(=O)NC[C@H](NS(=O)(=O)c2ccccc2[N+](=O)[O-])C(=O)O)cc1 [Example 59]					
